The results in this text go back to a melting point compilation (Tetko et al.; mined from patent text by program, amines drawn as free bases though some values may be those of a salt).

Consider `CC(C)Oc1ccc(-c2nc(-c3ccc(OC(C)C)cc3O)nc(-c3ccc(OC(C)C)cc3O)n2)c(O)c1`, for which the melting point turned out to be 122 °C.

For `COC(=O)CCCC=C1SC(=S)N(N=c2sc3ccccc3s2)C1=O`, the melting point was 210 °C.

Molecule `CN(C)S(=O)(=O)c1ccc2ccc3ccccc3c(=O)c2c1` displayed a melting point of 130 to 136 °C.

`CC(=O)NC1CCC2=C(CC1)C(=O)C(CC(=O)O)C=C2` (stereo not drawn) had a melting point of 198 °C.

`Cn1cc(-c2cc3cccnc3[nH]2)c2cc(OCCCO)ccc21` showed a melting point of 192 to 193 °C.

In turn, `O=C1c2ccccc2C(=O)N1CCS(=O)(=O)c1ccccc1` registered a melting point of 186 to 188 °C.

The molecule `CCOC(=O)C1CCc2cc(NS(C)(=O)=O)ccc2O1` (stereo not drawn) came in with a melting point of 111 °C.

The molecule `CCNC(=O)Nc1nc2cc(-c3cccnc3)cc(-c3ccc(C)cn3)c2s1` displayed a melting point of 231 °C.

The molecule `COc1cccc2sc(Sc3ccc4c(c3)CC[C@H]3N(C)C(=O)CC[C@]43C)nc12` had a melting point of 200 to 205 °C.

Molecule `O=c1cc(N2CCCCC2)sn1CCc1ccccc1` gave a melting point of 106 to 108 °C.

Consider `CCCCCCCCCCCCc1ccccc1C(Sc1nnnn1CCCC(=O)O)C(=O)O` (stereo not drawn), for which the melting point fell in the range of 86 to 88 °C.

Consider `CCOC(=O)CCCOc1ccc2c(c1)C(N(CC)S(C)(=O)=O)CC(C)(C)O2` (stereo not drawn), for which the melting point lay in the range of 40 to 42 °C.

With `C/C(=C/CO)c1cc2c(cc1O)C(C)(C)CCC2(C)C`, the melting point lay within 144 to 145 °C.

Consider `CS(=O)(=O)c1ccc(Cn2ccc3c4c(N)nc(N)nc4ccc32)cc1`, for which the melting point is 248 °C.

`COc1ccc(S(N)(=O)=O)cc1C(=O)NC1CCN(C2CCCCC2)C1` (stereo not drawn) had a melting point of 184 to 187 °C.

`CCOC(=O)/C=C/c1ccccc1C#N` showed a melting point of 60 to 62 °C.

For the molecule `CCCN1C(=O)N(c2ccc(N3CCN(c4ccc(O)cc4)CC3)cc2)NC1C` (stereo not drawn), the melting point is 253 °C.

As to `O=C1OCc2cccc(CBr)c21`, the melting point was 128 to 131 °C.

`CCc1c(NC(=O)c2ccc(-c3ccc(F)cc3)cc2)ccc2cc(CN3CCCC3)cnc12` had a melting point of 258 to 260 °C.

For `CNc1ccnc(Cl)c1N`, the melting point lay in the range of 166 to 168 °C.

In the case of `NC(CCCc1ccccc1)C(=O)O` (stereo not drawn), the melting point fell in the range of 213 to 215 °C.

`CCCCCc1c(C(C)C)nc(C(C)C)c(CO)c1-c1ccccc1C`: the melting point was in the range of 81 to 83 °C.

Molecule `O=C(NCc1ccncc1)N(c1ccccc1)c1ccccc1` came in with a melting point of 174 °C.

Consider `c1cnc2[nH]c(CCCN3CCOCC3)nc2c1`, for which the melting point fell in the range of 101 to 103 °C.

`CCCc1n[nH]c(C(N)=O)c1N` gave a melting point of 196 to 201 °C.

Turning to `N#CCC1(c2onc(-c3ccc(O)cc3)c2-c2ccccc2)CC1`, the melting point was in the range of 189 to 190 °C.

Turning to `CC(c1cc2ncnc(Cl)c2[nH]1)c1oc2ccccc2c(=O)c1-c1cccc(F)c1` (stereo not drawn), the melting point is 166 to 168 °C.

With `CCOc1c(Cl)ccc(-c2nc(C(=O)OC)c(Cl)c(S(C)(=O)=O)n2)c1F`, the melting point lay within 164 to 166 °C.

The molecule `Cc1cc(C)cc(-c2nc(NC(=O)c3ccccc3)sc2-c2ccncc2)c1` gave a melting point of 285 to 286 °C.

On to `c1ccc(C(OC2CCN(CCCn3cnc4ccccc43)CC2)c2ccccc2)cc1`, for which the melting point turned out to be 110 °C.

Take `CCN(CC)Cc1nc(-c2ccc(OC)c(OC)c2)c2cc(OC)c(OC)cc2n1`: the melting point fell in the range of 111 to 113 °C.

For `CCCC(=O)NCCc1c(OC)ccc2ccccc12`, the melting point was in the range of 73 to 79 °C.

Molecule `Oc1ccc2c(c1)CCC2n1cc[nH]c1=S` (stereo not drawn) displayed a melting point of 208 to 209 °C.

`O=C(NCc1ccccc1)N1CC(Oc2cccc(C(F)(F)F)c2)C1` came in with a melting point of 174 to 175 °C.

For `O=C1Nc2ccccc2C(c2ccccc2)N1C1CCN(Cc2cccc(OC(F)(F)F)c2)CC1` (single isomer, unassigned; (+)), the melting point was in the range of 195 to 198 °C.

As to `COc1nc(C)cnc1N(C(=O)OCC(C)C)S(=O)(=O)c1cccnc1Cl`, the melting point lay in the range of 99 to 101 °C.

As for `ON=Cc1ccc(N2CCC3(CC2)OCCO3)cc1`, the melting point was 151 to 152 °C.

The molecule `CCCS(=O)c1sc(C(N)=O)c2c1-c1c(cnn1CC(F)(F)F)CC2` (stereo not drawn) had a melting point of 165 to 166 °C.

In turn, `CCC(O)CN1CCC(c2noc3cc(F)ccc23)CC1` (stereo not drawn) came in with a melting point of 87 to 88 °C.

As for `COc1ccc2c(=O)cc(C(=O)N[C@H]3CCN(C(=O)c4cc(C(F)(F)F)cc(C(F)(F)F)c4)[C@H](Cc4ccc(Cl)cc4)C3)oc2c1`, the melting point fell in the range of 198 to 200 °C.

Take `O=C(SCCC(=O)N1C(c2cccs2)SC[C@H]1C(=O)O)c1ccccc1` (stereo partly drawn): the melting point was 141 to 143 °C.

As for `CC(C)(S)CNC(=O)/C(CCO)=C(\c1ccc(Cl)cc1)c1ccc(S(C)(=O)=O)cc1`, the melting point lay in the range of 62 to 64 °C.

In the case of `Fc1ccc(C(c2ccccc2)(c2ccccc2F)n2ccnc2)cc1` (stereo not drawn), the melting point was 164 to 167 °C.

In the case of `CNC1(c2cccs2)CCC(=O)CC1`, the melting point lay in the range of 72 to 74 °C.

Regarding `O=C(N[C@H]1CCN(CCCOc2ccc(F)cc2)C[C@H]1O)c1ccccc1` (relative stereo), the melting point turned out to be 130 °C.

Molecule `CC(=O)OC1CSC(Oc2cncc(C#N)c2)C(OC(C)=O)C1OC(C)=O` (stereo not drawn) registered a melting point of 147 °C.

The molecule `CCOc1ccc(Nc2ncccc2NS(=O)(=O)c2ccc(OC)cc2)cc1` gave a melting point of 144 to 146 °C.

`COc1cc(OC)cc(-c2ncoc2-c2ccc(OC)c(N)c2)c1` had a melting point of 163 to 165 °C.

As for `CCOC(=O)COc1cc(O)c(C(=O)CN2Cc3cc(C(N)=S)ccc3C2=O)cc1OCC(=O)OCC`, the melting point was 142 to 143 °C.

Molecule `CCCCc1nn(CC(F)(F)F)c(C(=O)O)c1Cc1ccc2oc(-c3ccccc3-c3nnn[nH]3)c(Br)c2c1` displayed a melting point of 216 to 220 °C.

The molecule `CCCCc1nc2c(C(F)(F)F)cccc2c(O)c1C(=O)OCC` returned a melting point of 68 to 69 °C.

Turning to `Clc1cccc2c(CCN3CCCCC3)c(-c3ccccc3)[nH]c12`, the melting point lay in the range of 178 to 179 °C.

As to `C[C@H](NC(=O)OC(C)(C)C)[C@@H]1CCN(c2nc3c(cc2F)c(=O)[nH]c(=O)n3C2CC2)C1`, the melting point was 249 to 251 °C.

The molecule `CSc1nnc(-c2ccc3occ(-c4ccc(OC(F)(F)F)cc4)c3c2)o1` gave a melting point of 138 to 139 °C.

`CC(C)Cn1nc(-c2ccc(F)cc2F)cc(CN2C(=O)c3ccccc3C2=O)c1=O`: the melting point fell in the range of 152 to 156 °C.

In turn, `Nc1ccc(-c2ccc(C(F)(F)F)cc2)cn1` yielded a melting point of 130 °C.

Take `CC(C)(C)n1cc(-c2ccc(N(C=O)c3ccccc3)cc2)c2cncnc21`: the melting point was 163 to 164 °C.

With `CCOC(=O)N1CCC(Nc2nc3cccnc3n2Cc2ccc(CC)o2)CC1`, the melting point worked out at 111 °C.

The molecule `CCC1(CC)c2cc(Br)ccc2-c2ccc(C=O)cc21` displayed a melting point of 126 to 128 °C.

Consider `Cc1c(Br)c(NC(=O)CC(C)(C)C)c(C)c2c1OCC2c1ccc(C(C)C)cc1` (stereo not drawn), for which the melting point lay in the range of 174 to 175 °C.

For the molecule `CCOC(=O)c1cc(Nc2cccc(Cl)c2Cl)c(C(=O)OCC)cc1Nc1cccc(Cl)c1Cl`, the melting point fell in the range of 265 to 266 °C.

As for `CCCC1=C(C(=O)OCC)C(c2ccccc2OC)c2c[nH]nc2N1` (stereo not drawn), the melting point is 169 °C.

Consider `CCCCCCCc1ccc(CC2C=CC(Oc3ccc(C(=O)O)o3)=C3N=C4CCCCC4=C32)cc1` (stereo not drawn), for which the melting point fell in the range of 164 to 165 °C.

With `O=C(O)c1cccc(C(=O)O)c1S(=O)(=O)Nc1ccc(F)cc1C(F)(F)F`, the melting point is 250 to 254 °C.

`CS(=O)c1cc(=O)c2occc2s1` (stereo not drawn) had a melting point of 230 to 232 °C.

`COC(=O)CCCC#Cc1cc(Cl)ccc1NS(=O)(=O)c1ccc2nc(N)sc2c1` returned a melting point of 61 to 65 °C.

Regarding `CC(C)(C)OC(=O)N1CCN(c2cc(N)nc(N)n2)CC1`, the melting point is 176 to 179 °C.

`NS(=O)(=O)c1ccccc1S(=O)(=O)N1CCC1`: the melting point was in the range of 121 to 123 °C.

`COC(=O)C=Cc1c(C(=O)OC)[nH]c2c(C)ccc(C)c12`: the melting point lay within 135 to 136 °C.

Molecule `Cc1ccc(Cc2c(C(F)(F)F)[nH][nH]c2=O)cc1` yielded a melting point of 150 to 152 °C.

`COc1ccc2c(c1)cc(C(=O)Nc1ccc3c(ccn3C)c1)n2Cc1cccc(C(F)(F)F)c1` registered a melting point of 176 to 177 °C.

In the case of `CCOC(=O)N1CCC(Nc2cc(OC)ccc2[N+](=O)[O-])CC1`, the melting point was in the range of 115 to 117 °C.

Regarding `O=C1NC(=O)C(Cc2ccc(OCCn3ncc4ccccc4c3=O)cc2)S1` (stereo not drawn), the melting point was found to be 165 °C.

`C=C(C)C(=O)OCCOC(=O)C(=O)OCc1ccc(OCc2ccccc2)cc1` displayed a melting point of 40 to 42 °C.

As to `CC(=O)c1ccc(-n2c(-c3sc(Nc4ccccc4)nc3-c3ccccc3)nc3ccccc3c2=O)cc1`, the melting point lay in the range of 223 to 225 °C.

`O=C1C=Cc2ccc3ncccc3c2C1=O` yielded a melting point of 215 to 216 °C.

`CCOC(=O)c1c(CN2CCOCC2)nc2cc(OCC)c(OCC)cc2c1-c1ccc(OC)c(OC)c1` displayed a melting point of 147 to 148 °C.

The molecule `Clc1cc(N2CCC3(CC2)OCCO3)nc(N2CCC3(CC2)OCCO3)n1` displayed a melting point of 130 to 131 °C.

On to `Clc1ccc(Oc2ccccc2Oc2ccc(Cl)cn2)nc1`, for which the melting point lay in the range of 82 to 84 °C.

The molecule `COc1cc(C(=O)N2CCN(C(=O)/C=C/c3cccc(-c4cc(OC)c(OC)c(OC)c4)c3)CC2)cc(OC)c1OC` yielded a melting point of 149 to 151 °C.

Molecule `O=S(=O)(F)c1cc(S(=O)(=O)F)cc(S(=O)(=O)F)c1` came in with a melting point of 166 to 168 °C.

Consider `CCCN1CCC23c4cccc(OC)c4OC2C2CCC3(C1)C(COC)C2` (stereo not drawn), for which the melting point lay in the range of 130 to 131 °C.

`Cc1c(Cc2ccc(C(C)C)cc2)c2c(c(C)c1NC(=O)CC(C)(C)C)C(=O)C(C)(C)O2`: the melting point is 193 to 194 °C.

Turning to `COc1ccc(C2CN(C)C(=O)O2)cc1OC` (stereo not drawn), the melting point lay within 132 to 133 °C.

`COc1c(Cl)nc(C(=O)O)c(Cl)c1N` registered a melting point of 154 to 156 °C.

As for `Clc1ccc2onc(CBr)c2c1`, the melting point lay in the range of 83 to 85 °C.

`COc1ccc(C2NC(C(=O)O)CS2)cc1` (stereo not drawn) registered a melting point of 150 to 151 °C.

`O=C(Nc1cccc(S(=O)(=O)N2CCCC2)c1)c1cnn2c(C(F)(F)F)cc(-c3ccc(Cl)c(Cl)c3)nc12`: the melting point stood at 280 °C.

For orientation: melting point means the temperature, or range, at which the solid turns liquid.
